The record followed here is paper PMC4648050, “Discovery of Inhibitors of Trypanosoma brucei by Phenotypic Screening of a Focused Protein Kinase Library” (Chemmedchem, 2015).

Like-named read-outs stand apart in the source and are kept apart here.

Series [1] has as its system MRC5 cells (human lung fibroblasts). The series is described as follows: MRC5 proliferation assay. The series is classed as cell-based. The conditions noted are these: geometric mean of two or more determinations. Here is the method:
(§1) Trypanosome and MRC5 proliferation assay: Measurement of inhibition of the proliferation of MRC5 cells (human lung fibroblasts) and T. brucei bloodstream-stage cells was performed using a modification of a cell viability assay previously described.[35, 36] Compounds ([…] to 0.5 nM) were incubated with 2×10^3 cells per well in 0.2 mL of the appropriate culture medium (MEM with 10 % foetal bovine serum for MRC5 cells) in clear 96-well plates. Plates were incubated at 37 °C in the presence of 5 % CO2 for 69 h. Resazurin was then added to a final concentration of 50 μM, and plates were incubated as above for a further 4 h before being read on a BioTek Flx800 fluorescence plate reader.

The test system of another series is T. b. brucei. The series is described as follows: Trypanosome proliferation assay. The format is cell-based, Trypanosoma brucei brucei. The conditions noted are these: for EC50: Trypanosoma brucei, read-out: EC50 T. b. brucei; for fold loss of activity (T. b. brucei EC50): relative to the comparator compound. Here is the method:
as §1

Series [2] in a line: Plasma protein binding (equilibrium dialysis). The conditions noted are these: female, CD1; mouse plasma, equilibrium dialysis; read-out: PPB. The format is in vitro ADME. The protocol:
Plasma protein binding experiments: In brief, a 96-well equilibrium dialysis apparatus was used to determine the free fraction in plasma for each compound (HT Dialysis LLC, Gales Ferry, CT, USA). Membranes (12-14 kDa cutoff) were conditioned in deionised H2O for 60 min, followed by conditioning in 80:20 deionised H2O/EtOH for 20 min, and then rinsed in isotonic buffer before use. Female CD1 mouse plasma was removed from the freezer and allowed to thaw on the day of experiment. Thawed plasma was then centrifuged (Allegra […], Beckman Coulter, USA), spiked with test compound (10 μg g^-1), and 150 μL aliquots (n=6 replicate determinations) loaded into the 96-well equilibrium dialysis plate. Dialysis against isotonic buffer (150 μL) was carried out for 5 h in a temperature-controlled incubator at ∼37 °C (Barworld Scientific Ltd., UK) using an orbital microplate shaker at 125 rpm (Barworld Scientific). At the end of the incubation period, aliquots of plasma or buffer were transferred to micronic tubes (Micronic B.V., the Netherlands), and the composition in each tube was balanced with control fluid such that the volume of buffer to plasma is the same. Sample extraction was performed by the addition of 400 μL MeCN containing an appropriate internal standard. Samples were allowed to mix for 1 min and then centrifuged at 3000 rpm in 96-well blocks for 15 min (Allegra […], Beckman Coulter, USA). All samples were analysed by UPLC-MS/MS on a Quattro Premier XE Mass Spectrometer (Waters Corp.). The unbound fraction was determined as the ratio of the peak area in buffer to that in plasma.
(In general: In equilibrium dialysis free small molecules cross a membrane that holds back macromolecules.)

In series [3] the test system is T. brucei bloodstream-stage cells. The series is described as follows: Static–cidal (SC) assay. The format is cell-based, Trypanosoma brucei brucei. The conditions noted are these: for EC50 / MCC: Trypanosoma brucei; for EC50: 48 h; for MCC: read-out: MCC (minimal cidal concentration); for mode of antiparasitic effect (in words): text and figure legend, at concentrations tested; for plateau of dose–response curve (inhibition): static–cidal dose–response curve. Here is the method:
Determination of cidality against T. brucei bloodstream-stage cells was performed using a static–cidal (SC) assay as previously reported.[26] Briefly, bloodstream-form trypanosomes were seeded into 384-well plates at 4×10^5 mL^−1 (50 μL per well), followed by immediate addition of resazurin (50 μM final) to one of the plates, and all plates were incubated at 37 °C, 5 % CO2. After 4 h the t0 plate was read using a PerkinElmer Victor 3 plate reader (λex=528 nm, λem=590 nm). The second plate was processed in the same manner 20 h later, and at 44 h the last plate was processed. The minimum cidal concentration (MCC) is defined as the lowest concentration of drug that results in a decrease of resorufin signal over time. For dose–response curves from this assay either a monophasic or a biphasic equation was used, depending on which one provided the best fit. For monophasic fits, the following four-parametric equation [Eq. (1)] was used:
in which A=percent inhibition at bottom, B=percent inhibition at top, C=EC50, D=slope, x=inhibitor concentration, and y=percent inhibition. Equation (2) was used for biphasic fits:
for which A=percent inhibition at mid-plateau, B=slope, C=log[SC EC50(1)], D=log[SC EC50(2)]. Thus SC EC50(1) is the EC50 for the first phase of the curve, and SC EC50(2) is that for the second phase. Inhibition at the bottom of the curve is fixed at 0 % and at the top, 100 %.

Where [4] appears, read: geometric mean of two or more determinations, standard cell viability (resazurin) assay.
[5] abbreviates: static cidal EC50, first site/phase, read-out: SC EC50(1).
The mark [6] stands for this setting: static–cidal assay in triplicate.

Broadly, the EC50 is the concentration giving half of the maximal effect. Consider `COCCCn1c(=O)[nH]c2ncc(-c3ccc(OC(F)(F)F)cc3)nc21` [Compound 2], for which the values for the concentration for a half-maximal effect (EC50) (in series [1]; with T. b. brucei (setting [4])) were 15000 nM and 500 nM, respectively.
Turning to `C[C@H](c1ccccc1)n1c(=O)[nH]c2ncc(-c3ccc(O)cc3)nc21` [Compound 3], in the series on T. b. brucei (setting [4]), the EC50 is 900 nM.
Consider `C[C@@H](c1ccccc1)n1c(=O)[nH]c2ncc(-c3ccc(F)cc3)nc21` [Compound 8], for which the EC50 in series [1] was over 50000 nM; in the series with T. b. brucei (setting [4]) it was 90 nM.
The matching figures for `O=c1[nH]c2ncc(-c3ccc(F)cc3)nc2n1Cc1ccccc1` [Compound 9, 1-Benzyl-6-(4-fluorophenyl)-1H-imidazo[4,5-b]pyrazin-2(3H)-one]: over 50000 nM and 500 nM.
As for `Cn1c(=O)[nH]c2ncc(-c3ccc(F)cc3)nc21` [Compound 11], the EC50 in series [1] was over 50000 nM; in the series on T. b. brucei (setting [4]), 40000 nM. Besides, in the series with T. b. brucei, the “fold loss of activity (T. b. brucei EC50)” value (from here on “fold loss of activity”) was 100 fold.
For the molecule `C[C@H](c1ccccc1)n1c(=O)[nH]c2ncc(-c3ccc(OC(F)(F)F)cc3)nc21` [Compound 15], the EC50 in series [1] amounted to 39000 nM; with T. b. brucei (setting [4]), 1000 nM. Besides, the “fold loss of activity” value in the series with T. b. brucei stood at 10 fold.
The matching figures for `C[C@H](c1ccccc1)n1c(=O)[nH]c2nccnc21` [Compound 16]: over 50000 nM, 36000 nM and over 300 fold.
As to `C[C@H](c1ccccc1)n1c(=O)[nH]c2ncc(-c3cccc(F)c3)nc21` [Compound 17], the EC50 was determined as 44000 nM in series [1] and 300 nM in the series with T. b. brucei (setting [4]).
Consider `COc1ccc(-c2cnc3[nH]c(=O)n(C4CCCCC4)c3n2)cc1` [Compound 20], for which the fraction unbound at 5 h, 10 μg g^−1 in series [2] turned out to be 0.007. Besides, the concentration for a half-maximal effect (EC50) in series [1] was 24000 nM; in the series with T. b. brucei (setting [4]) it was 330 nM.
Consider `O=c1[nH]c2ncc(-c3ccc(CO)cc3)nc2n1C1CCCCC1` [Compound 21], for which the fraction unbound at 5 h, 10 μg g^−1 in series [2] was determined as 0.047. Moreover, the EC50 in series [1] was over 50000 nM; with T. b. brucei (setting [4]), 400 nM. For the same molecule, the “fold loss of activity” value in the series on T. b. brucei is 10 fold.
`CNC(=O)c1ccc(-c2cnc3[nH]c(=O)n(C4CCCCC4)c3n2)cc1` [Compound 22]: the 50% effective concentration (EC50) in series [1] was over 50000 nM; in the series with T. b. brucei (setting [4]), 1700 nM. For the same molecule, the “fold loss of activity” value in the series on T. b. brucei turned out to be 30 fold.
On to `CN(C)Cc1ccc(-c2cnc3[nH]c(=O)n(C4CCCCC4)c3n2)cc1` [Compound 23], for which the figures for the EC50 (in series [1]; in the series with T. b. brucei (setting [4])) were over 50000 nM and 5000 nM, respectively. Also, in the series on T. b. brucei, the “fold loss of activity” value amounted to 50 fold.
For the molecule `CC(=O)Nc1cccc(-c2cnc3[nH]c(=O)n(C4CCCCC4)c3n2)c1` [Compound 25], the results for the concentration giving a half-maximal response (EC50) (in series [1]; in the series with T. b. brucei (setting [4])) were over 50000 nM and 900 nM, respectively.
On to `COc1ccccc1-c1cnc2[nH]c(=O)n(C3CCCCC3)c2n1` [Compound 27], for which the EC50 in series [1] is over 50000 nM; in the series on T. b. brucei (setting [4]), 900 nM.
The matching figures for `O=c1[nH]c2ncc(-c3ccncc3)nc2n1C1CCCCC1` [Compound 29]: over 50000 nM and 70 nM.
On to `CN1CCN(c2cnc3[nH]c(=O)n(C4CCCCC4)c3n2)CC1` [Compound 33], for which the values for the EC50 (in series [1]; in the series with T. b. brucei (setting [4])) were over 50000 nM and 2000 nM, respectively. In addition, in the series on T. b. brucei, the “fold loss of activity” value is given as 50 fold.
As for `CC(C)n1c(=O)[nH]c2ncc(-c3ccccc3)nc21` [Compound 36], the results for the concentration for a half-maximal effect (EC50) (in series [1]; in the series with T. b. brucei (setting [4])) were over 50000 nM and 300 nM, respectively. For the same molecule, in the series with T. b. brucei, the “fold loss of activity” value came out at 10 fold.
`O=c1[nH]c2ncc(-c3ccccc3)nc2n1-c1ccccc1` [Compound 37]: the EC50 (in series [1]; in the series with T. b. brucei (setting [4])) was over 50000 nM in each case.
With `COCC(C)n1c(=O)[nH]c2ncc(-c3ccccc3)nc21` (centres unmarked) [Compound 39, 1-(1-Methoxypropan-2-yl)-6-phenyl-1H-imidazo[4,5-b]pyrazin-2(3H)-one], the concentration for a half-maximal effect (EC50) in series [3] (setting [5]) was 410 nM; in series [3] (static cidal EC50, second site/phase, read-out: SC EC50(2)), 32000 nM; in series [1], over 50000 nM; with T. b. brucei (setting [4]), 200 nM. For the same molecule, in series [3] (setting [6]), the MCC is over 50000 nM. Also, in series [3] (static/cidal classification from growth curves), the Mode result is recorded as “S”. In addition, the “mode of antiparasitic effect (in words)” value in series [3] is on record as “growth-slowing or static behaviour”.
Take `CCC(CO)n1c(=O)[nH]c2ncc(-c3ccccc3)nc21` (centres unmarked) [Compound 40]: the EC50 in series [1] was over 50000 nM; in the series with T. b. brucei (setting [4]) it was 500 nM. Further, in the series with T. b. brucei, the “fold loss of activity” value is listed as about 10 fold.
On to `CN(C)CCn1c(=O)[nH]c2ncc(-c3ccccc3)nc21` [Compound 41], for which the EC50 in series [1] was over 50000 nM; in the series with T. b. brucei (setting [4]) it was 13000 nM.
The matching figures for `CN1CCC(n2c(=O)[nH]c3ncc(-c4ccccc4)nc32)CC1` [Compound 42]: over 50000 nM and 2000 nM.
Regarding `C[C@H](c1ccccc1)n1c(=O)[nH]c2ccc(-c3ccc(F)cc3)cc21` [Compound 47], the half-maximal effective concentration (EC50) in the series with T. b. brucei (setting [4]) stood at 10000 nM. Further, the “fold loss of activity” value in the series with T. b. brucei is reported as 100 fold.
As for `C[C@H](c1ccccc1)n1c(=O)n(C)c2ncc(-c3ccc(F)cc3)nc21` [Compound 48], the EC50 with T. b. brucei (setting [4]) was 8000 nM. For the same molecule, the “fold loss of activity” value in the series on T. b. brucei is 100 fold.
As to `CC(C)(c1ccccc1)n1c(=O)[nH]c2ncc(-c3cccnc3)cc21` [Compound 52], the EC50 in series [1] was 23000 nM; in the series on T. b. brucei (setting [4]), 790 nM.
Consider `O=c1[nH]c2ncc(-c3ccccc3CO)cc2n1C1CCCCC1` [Compound 53], for which the values for the 50% effective concentration (EC50) (in series [1]; in the series with T. b. brucei (setting [4])) were over 50000 nM and 670 nM, respectively. Also, in the series on T. b. brucei, the “fold loss of activity” value is recorded as about 13 fold.
As to `CC(C)(c1ccccc1)n1c(=O)[nH]c2ncc(-c3ccccc3CO)cc21` [Compound 54], the concentration for a half-maximal effect (EC50) in series [1] is over 50000 nM; in the series on T. b. brucei (setting [4]), 15000 nM.
`O=c1[nH]c2ncc(N3CCOCC3)cc2n1C1CCCCC1` [Compound 57]: the EC50 in series [1] was over 50000 nM; with T. b. brucei (setting [4]) it was 330 nM. In addition, the “fold loss of activity” value in the series on T. b. brucei is on record as about 7 fold.
`OCc1ccccc1-c1cnc2[nH]nc(C3CCCCC3)c2c1` [Compound 61]: the 50% effective concentration (EC50) is over 50000 nM in series [1] and 1300 nM in the series with T. b. brucei (setting [4]).
Take `COCc1ccccc1-c1cnc2[nH]nc(C3CCCCC3)c2c1` [Compound 62]: the EC50 in series [1] was over 50000 nM; with T. b. brucei (setting [4]), 2600 nM.
Take `Nc1nc(N)nc(Nc2ccc([As]3SCC(CO)S3)cc2)n1` (centres unmarked) [melarsoprol, reference compound]: the EC50 in series [3] (read-out: SC EC50(1)) was determined as 31 nM; in the series on T. b. brucei, 9 nM. Also, in series [3], the MCC turned out to be 100 nM. The “plateau of dose–response curve (inhibition)” value in series [3] was 100 % inhibition.
Consider `N=C(N)c1ccc(OCCCCCOc2ccc(C(=N)N)cc2)cc1` [pentamidine, reference compound], for which the EC50 in series [3] (setting [5]) was 19 nM. Further, the MCC in series [3] (setting [6]) worked out at 100 nM. In addition, in series [3], the “plateau of dose–response curve (inhibition)” value is 100 % inhibition and the “mode of antiparasitic effect (in words)” value is “cidal”. Besides, in the series on T. b. brucei (setting [4]), the concentration for a half-maximal effect (EC50) turned out to be 4 nM.
